Results published in patent US20230141569A1, “FLUORESCENT DYE, AND PREPARATION METHOD AND USES THEREOF” (FLUORESCENCE DIAGNOSIS (SHANGHAI) BIOTECH COMPANY LTD., priority 2020, published 2023).

Legend:
[1] = Viscosity response: fluorescence in glycerin vs methanol (Test Example 1); type: physicochemical; details: final concentration 1×10^−5 M; for Glycerin/Methanol Fluorescence Intensity Ratio: excited at maximum excitation wavelength of each dye; for Maximum Excitation Wavelength (nm): glycerin and methanol
[2] = test system: RNA aptamer; test: Labeling intracellular RNA aptamer in cells (Test Example 4, FIG. 20A/20B); type: cell-based; details: for fluorescence of cells expressing the RNA aptamer: FIG. 20A; for fluorescence of cells not expressing the RNA aptamer: FIG. 20B
Description: FIGS. 20A and 20B are the application of molecular rotors IV-1, IV-2, IV-3, IV-4, IV-5, IV-6, IV-17, IV-18, IV-19, IV-20, IV-21, IV-22 in labeling intracellular RNA aptamer, wherein FIG. 20A are cells expressing the target RNA aptamer, and FIG. 20B are cells not expressing the target RNA aptamer;

[3] = test system: RNA aptamer; test: Optical properties after binding to RNA aptamer (Test Example 4); type: biochemical; details: for Em/nm / Ex/nm / ε / QY (−): after binding to RNA aptamer; for QY (−): relative method with Rhodamine 6G as the standard; for compound fluorescence after binding to RNA aptamer: excited at a suitable wavelength
[4] = Fluorescence emission at different viscosity conditions, diethanol-glycerol mixed solution (Test Example 2); type: physicochemical; details: 1×10^−5 M, excited at 480 nm

Compound | Glycerin/Methanol Fluorescence Intensity Ratio [1] | Maximum Excitation Wavelength (nm) [1] [nm] | Em/nm [3] [nm] | Ex/nm [3] [nm] | ε [3] [M⁻¹ cm⁻¹] | QY (−) [3] | compound fluorescence after binding to RNA aptamer [3] | fluorescence of cells expressing the RNA aptamer [2] | fluorescence of cells not expressing the RNA aptamer [2] | fluorescence intensity at different viscosity conditions [4]
COC(=O)CNCCN(C)c1ccc(/C=C2N=C(/C=C/c3ccc(Br)cc3)N(C)C\2=O)cc1 [IV-30] | 921 | 582 |  |  |  |  |  |  |  | 
CN1C(=O)/C(=C/c2ccc(N)cc2)N=C1/C=C/c1ccc(C#N)cc1 [IV-35] | 776 | 561 |  |  |  |  |  |  |  | 
CN1C(=O)/C(=C/c2cc(F)c(O)c(F)c2)N=C1/C=C/c1ccc(C#N)cc1 [IV-1] | 987 | 618 | 618 | 510 | 20667 | 0.17 | noticeably activated | bright fluorescence | no fluorescence | gradually increasing fluorescence intensity
CN1C(=O)/C(=C/c2ccc(O)c(F)c2)N=C1/C=C/c1ccc(C#N)cc1 [IV-9] | 697 | 615 |  |  |  |  |  |  |  | 
CC1=CC(C)(C)N(C)c2ccc(/C=C3N=C(/C=C/c4ccc(C#N)cc4)N(C)C\3=O)cc21 [IV-33] | 729 | 605 |  |  |  |  |  |  |  | 
CCCN1C(=O)/C(=C/c2cc3c4c(c2)CCCN4CCC3)N=C1/C=C/c1ccc(C#N)cc1 [IV-27] | 890 | 600 |  |  |  |  |  |  |  | 
CCN1C(=O)/C(=C/c2cc(F)c(O)c(Cl)c2)N=C1/C=C/c1ccc(C#N)cc1 [IV-10] | 779 | 620 |  |  |  |  |  |  |  | 
CN1C(=O)/C(=C/c2ccc(O)c(Br)c2)N=C1/C=C/c1cccc(Cl)c1 [IV-15] | 730 | 586 |  |  |  |  |  |  |  | 
CN1C(=O)/C(=C/c2ccc(N(C)CCO)cc2)N=C1/C=C/c1ccc(O)cc1 [IV-20] | 781 | 577 | 577 | 512 | 25500 | 0.36 | noticeably activated | bright fluorescence | no fluorescence | gradually increasing fluorescence intensity
CN1C(=O)/C(=C/c2ccc(N(C)CCS(=O)(=O)O)cc2)N=C1/C=C/c1ccc(C#N)cc1 [IV-28] | 942 | 620 |  |  |  |  |  |  |  | 
CN1C(=O)/C(=C/c2ccc(N(C)CCO)cc2)N=C1/C=C/c1cccc(C#N)c1 [IV-18] | 890 | 595 | 600 | 536 | 25000 | 0.43 | noticeably activated | bright fluorescence | no fluorescence | gradually increasing fluorescence intensity
CN1C(=O)/C(=C/c2cc(Cl)c(O)c(Cl)c2)N=C1/C=C/c1ccc(Br)cc1 [IV-13] | 711 | 590 |  |  |  |  |  |  |  | 
C#CCOCCN(C)c1ccc(/C=C2N=C(/C=C/c3ccc(F)cc3)N(C)C\2=O)cc1 [IV-37] | 801 | 580 |  |  |  |  |  |  |  | 
COCCOCCOCCOCC(=O)OCCN(C)c1ccc(/C=C2N=C(/C=C/c3ccc(C#N)cc3)N(C)C\2=O)cc1 [IV-29] | 829 | 618 |  |  |  |  |  |  |  | 
O=C1NC(/C=C/c2ccc(Br)cc2)=NC/1=C\c1cc(Cl)c(O)c(Cl)c1 [IV-16] | 689 | 595 |  |  |  |  |  |  |  | 
CN1C(=O)/C(=C/c2cnc3cc(N(C)C)ccc3c2)N=C1/C=C/c1cccc(C#N)c1 [IV-38] | 529 | 705 |  |  |  |  |  |  |  | 
CN1C(=O)/C(=C/c2cc(F)c(O)c(F)c2)N=C1/C=C/c1cccc(O)c1 [IV-4] | 687 | 574 | 574 | 490 | 23333 | 0.37 | noticeably activated | bright fluorescence | no fluorescence | gradually increasing fluorescence intensity
CCN1C(=O)/C(=C/c2ccc(O)c(Cl)c2)N=C1/C=C/c1ccc(I)cc1 [IV-14] | 699 | 585 |  |  |  |  |  |  |  | 
CN1C(=O)/C(=C/c2ccc3cc(N(C)CCO)ccc3c2)N=C1/C=C/c1cccc(O)c1 [IV-36] | 792 | 690 |  |  |  |  |  |  |  | 
CN1C(=O)/C(=C/c2cc(F)c(O)c(F)c2)N=C1/C=C/c1cccc(F)c1 [IV-6] | 921 | 578 | 578 | 490 | 24000 | 0.37 | noticeably activated | bright fluorescence | no fluorescence | gradually increasing fluorescence intensity
CN1C(=O)/C(=C/c2cc(F)c(O)c(F)c2)N=C1/C=C/c1ccc(O)cc1 [IV-3] | 951 | 565 | 565 | 490 | 26000 | 0.27 | noticeably activated | bright fluorescence | no fluorescence | gradually increasing fluorescence intensity
CCCCCCN(CCCCCC)c1cnc(/C=C2N=C(/C=C/c3cccc(Cl)c3)N(C)C\2=O)cn1 [IV-25] | 918 | 591 |  |  |  |  |  |  |  | 

Further lines, with some results ahead:

Glycerin/Methanol Fluorescence Intensity Ratio [1] | Maximum Excitation Wavelength (nm) [1] [nm] | Em/nm [3] [nm] | Ex/nm [3] [nm] | ε [3] [M⁻¹ cm⁻¹] | QY (−) [3] | compound fluorescence after binding to RNA aptamer [3] | Compound | fluorescence of cells expressing the RNA aptamer [2] | fluorescence of cells not expressing the RNA aptamer [2] | fluorescence intensity at different viscosity conditions [4]
821 | 577 | 590 | 522 | 30000 | 0.43 | noticeably activated | CN1C(=O)/C(=C/c2ccc(N(C)CCO)cc2)N=C1/C=C/c1cccc(F)c1 [IV-19] | bright fluorescence | no fluorescence | gradually increasing fluorescence intensity
861 | 638 |  |  |  |  |  | CN1C(=S)/C(=C/c2cc(F)c(O)c(F)c2)N=C1/C=C/c1ccc(C#N)cc1 [IV-8] |  |  | 
861 | 570 | 570 | 492 | 23000 | 0.33 | noticeably activated | CN1C(=O)/C(=C/c2cc(F)c(O)c(F)c2)N=C1/C=C/c1ccc(F)cc1 [IV-5] | bright fluorescence | no fluorescence | gradually increasing fluorescence intensity
655 | 575 | 582 | 524 | 32000 | 0.47 | noticeably activated | CN1C(=O)/C(=C/c2ccc(N(C)CCO)cc2)N=C1/C=C/c1cccc(O)c1 [IV-17] | bright fluorescence | no fluorescence | gradually increasing fluorescence intensity
810 | 603 |  |  |  |  |  | CN1C(=O)/C(=C/c2ccc3c(c2)OCCN3C)N=C1/C=C/c1ccc(F)cc1 [IV-34] |  |  | 
873 | 570 |  |  |  |  |  | CN1C(=S)/C(=C/c2cc(F)c(O)c(F)c2)N=C1/C=C/c1ccc(F)cc1 [IV-7] |  |  | 
902 | 581 |  |  |  |  |  | CN1C(=O)/C(=C/c2ccc(N(C)CCN)cc2)N=C1/C=C/c1cccc(F)c1 [IV-31] |  |  | 
937 | 555 |  |  |  |  |  | CN1C(=O)/C(=C/c2cnc(N(C)CCC#N)nc2)N=C1/C=C/c1ccccc1I [IV-26] |  |  | 
934 | 551 |  |  |  |  |  | CCCN1C(=S)/C(=C/c2ccc(N(C)C)nc2)N=C1/C=C/c1ccccc1F [IV-24] |  |  | 
915 | 617 |  |  |  |  |  | C=CCOCCN(C)c1ccc(/C=C2N=C(/C=C/c3ccccc3C#N)N(C)C\2=S)cc1 [IV-23] |  |  | 
898 | 573 |  |  |  |  |  | CCCN1C(=O)/C(=C/c2cc(F)c(O)c(I)c2)N=C1/C=C/c1ccc(Cl)cc1 [IV-12] |  |  | 
999 | 580 |  |  |  |  |  | CN(C)CCN(C)c1ccc(/C=C2N=C(/C=C/c3cccc(F)c3)N(C)C\2=O)cc1 [IV-32] |  |  | 
